# ChEMBL document CHEMBL6078677, “Discovery and optimization of tetrahydroacridine derivatives as a novel class of antibiotics against multidrug-resistant Gram-positive pathogens by targeting type I signal peptidase and disrupting bacterial membrane” (Eur J Med Chem, 2025)
# System: Enterococcus faecium
# Test: Antimicrobial activity against Enterococcus faecium QF31 harboring erythromycin resistance rRNA methylase B and chloramphenicol-florfenicol resistance methylase assessed as inhibition of visible growth of bacteria incubated for 20 hrs by broth microdilution method
# Assay type: functional
# Details: not given
row,SMILES,MIC [µg/mL]
1,CC1C/C(=C\c2ccc(-c3ccc(Cl)c(C(F)(F)F)c3)o2)c2nc3ccccc3c(C(=O)O)c2C1 (racemic),8
2,CC1C/C(=C\c2ccc(-c3cccc(Cl)c3Cl)o2)c2nc3ccccc3c(C(=O)O)c2C1 (racemic),8
3,CC1C/C(=C\c2ccc(-c3cccc(Cl)c3Cl)cc2)c2nc3ccccc3c(C(=O)O)c2C1 (racemic),8
4,CC1C/C(=C\c2ccc(-c3ccc(Cl)c(C(F)(F)F)c3)o2)c2nc3ccccc3c(C(=O)N3CCN(C)CC3)c2C1 (racemic),> 64
5,CC1C/C(=C\c2ccc(-c3ccc(Cl)c(C(F)(F)F)c3)nc2)c2nc3ccccc3c(C(=O)O)c2C1 (racemic),8
6,CC1C/C(=C\c2cccc(-c3ccc(Cl)c(C(F)(F)F)c3)c2)c2nc3cc(N4CCOCC4)ccc3c(C(=O)O)c2C1 (racemic),4
7,CC1C/C(=C\c2cccc(-c3ccc(Cl)c(C(F)(F)F)c3)c2)c2nc3cc(N4CCN(C)CC4)ccc3c(C(=O)O)c2C1 (racemic),8
8,CC1C/C(=C\c2cccc(-c3ccc(Cl)c(C(F)(F)F)c3)c2)c2nc3ccccc3c(C(N)=O)c2C1 (racemic),> 64
9,CC1C/C(=C\c2ccco2)c2nc3ccccc3c(C(=O)O)c2C1 (racemic),16
10,COc1ccc2nc3c(c(C(=O)O)c2c1)CC(C)C/C3=C\c1ccc(-c2ccc(Cl)c(C(F)(F)F)c2)cc1 (racemic),4

# System: Staphylococcus aureus
# Test: Antimicrobial activity against Staphylococcus aureus ATCC 29213 assessed as inhibition of visible growth of bacteria incubated for 20 hrs by broth microdilution method
# Assay type: functional
# Details: not given
row,SMILES,MIC [µg/mL]
1,CC1C/C(=C\c2ccc(-c3ccc(Cl)c(C(F)(F)F)c3)o2)c2nc3ccccc3c(C(=O)O)c2C1 (racemic),2
2,CC1C/C(=C\c2ccc(-c3cccc(Cl)c3Cl)o2)c2nc3ccccc3c(C(=O)O)c2C1 (racemic),2
3,CC1C/C(=C\c2ccc(-c3cccc(Cl)c3Cl)cc2)c2nc3ccccc3c(C(=O)O)c2C1 (racemic),2
4,CC1C/C(=C\c2ccc(-c3ccc(Cl)c(C(F)(F)F)c3)o2)c2nc3ccccc3c(C(=O)N3CCN(C)CC3)c2C1 (racemic),> 64
5,CC1C/C(=C\c2ccc(-c3ccc(Cl)c(C(F)(F)F)c3)nc2)c2nc3ccccc3c(C(=O)O)c2C1 (racemic),4
6,CC1C/C(=C\c2cccc(-c3ccc(Cl)c(C(F)(F)F)c3)c2)c2nc3cc(N4CCOCC4)ccc3c(C(=O)O)c2C1 (racemic),8
7,CC1C/C(=C\c2cccc(-c3ccc(Cl)c(C(F)(F)F)c3)c2)c2nc3cc(N4CCN(C)CC4)ccc3c(C(=O)O)c2C1 (racemic),16
8,CC1C/C(=C\c2cccc(-c3ccc(Cl)c(C(F)(F)F)c3)c2)c2nc3ccccc3c(C(N)=O)c2C1 (racemic),> 64
9,CC1C/C(=C\c2ccco2)c2nc3ccccc3c(C(=O)O)c2C1 (racemic),> 64
10,COc1ccc2nc3c(c(C(=O)O)c2c1)CC(C)C/C3=C\c1ccc(-c2ccc(Cl)c(C(F)(F)F)c2)cc1 (racemic),4

# System: Streptococcus suis
# Test: Antimicrobial activity against Streptococcus suis P1/7 assessed as inhibition of visible growth of bacteria incubated for 20 hrs by broth microdilution method
# Assay type: functional
# Details: not given
row,SMILES,MIC [µg/mL]
1,CC1C/C(=C\c2ccc(-c3ccc(Cl)c(C(F)(F)F)c3)o2)c2nc3ccccc3c(C(=O)O)c2C1 (racemic),32
2,CC1C/C(=C\c2ccc(-c3cccc(Cl)c3Cl)o2)c2nc3ccccc3c(C(=O)O)c2C1 (racemic),64
3,CC1C/C(=C\c2ccc(-c3cccc(Cl)c3Cl)cc2)c2nc3ccccc3c(C(=O)O)c2C1 (racemic),> 64
4,CC1C/C(=C\c2ccc(-c3ccc(Cl)c(C(F)(F)F)c3)o2)c2nc3ccccc3c(C(=O)N3CCN(C)CC3)c2C1 (racemic),> 64
5,CC1C/C(=C\c2ccc(-c3ccc(Cl)c(C(F)(F)F)c3)nc2)c2nc3ccccc3c(C(=O)O)c2C1 (racemic),> 64
6,CC1C/C(=C\c2cccc(-c3ccc(Cl)c(C(F)(F)F)c3)c2)c2nc3cc(N4CCOCC4)ccc3c(C(=O)O)c2C1 (racemic),8
7,CC1C/C(=C\c2cccc(-c3ccc(Cl)c(C(F)(F)F)c3)c2)c2nc3cc(N4CCN(C)CC4)ccc3c(C(=O)O)c2C1 (racemic),8
8,CC1C/C(=C\c2cccc(-c3ccc(Cl)c(C(F)(F)F)c3)c2)c2nc3ccccc3c(C(N)=O)c2C1 (racemic),> 64
9,CC1C/C(=C\c2ccco2)c2nc3ccccc3c(C(=O)O)c2C1 (racemic),32
10,COc1ccc2nc3c(c(C(=O)O)c2c1)CC(C)C/C3=C\c1ccc(-c2ccc(Cl)c(C(F)(F)F)c2)cc1 (racemic),> 64

# System: Enterococcus faecalis
# Test: microbe, parasite or virus in culture
# Assay type: functional
# Details: SF23-1, time 20 hrs
# Description: Antimicrobial activity against Enterococcus faecalis SF23-1 harboring erythromycin-resistance rRNA methylase B, tetracycline efflux protein L and chloramphenicol-florfenicol resistance methylase assessed as inhibition of visible growth of bacteria incubated for 20 hrs by broth microdilution method
row,SMILES,MIC [µg/mL]
1,CC1C/C(=C\c2ccc(-c3ccc(Cl)c(C(F)(F)F)c3)o2)c2nc3ccccc3c(C(=O)O)c2C1 (racemic),8
2,CC1C/C(=C\c2ccc(-c3cccc(Cl)c3Cl)o2)c2nc3ccccc3c(C(=O)O)c2C1 (racemic),8
3,CC1C/C(=C\c2ccc(-c3cccc(Cl)c3Cl)cc2)c2nc3ccccc3c(C(=O)O)c2C1 (racemic),8
4,CC1C/C(=C\c2ccc(-c3ccc(Cl)c(C(F)(F)F)c3)o2)c2nc3ccccc3c(C(=O)N3CCN(C)CC3)c2C1 (racemic),> 64
5,CC1C/C(=C\c2ccc(-c3ccc(Cl)c(C(F)(F)F)c3)nc2)c2nc3ccccc3c(C(=O)O)c2C1 (racemic),8
6,CC1C/C(=C\c2cccc(-c3ccc(Cl)c(C(F)(F)F)c3)c2)c2nc3cc(N4CCOCC4)ccc3c(C(=O)O)c2C1 (racemic),32
7,CC1C/C(=C\c2cccc(-c3ccc(Cl)c(C(F)(F)F)c3)c2)c2nc3cc(N4CCN(C)CC4)ccc3c(C(=O)O)c2C1 (racemic),8
8,CC1C/C(=C\c2cccc(-c3ccc(Cl)c(C(F)(F)F)c3)c2)c2nc3ccccc3c(C(N)=O)c2C1 (racemic),> 64
9,CC1C/C(=C\c2ccco2)c2nc3ccccc3c(C(=O)O)c2C1 (racemic),> 64
10,COc1ccc2nc3c(c(C(=O)O)c2c1)CC(C)C/C3=C\c1ccc(-c2ccc(Cl)c(C(F)(F)F)c2)cc1 (racemic),4
